Structures can show the parent of a compound that is named as a salt.
molecular target: human recombinant KAT-II (Homo sapiens (Human), UniProt Q8N5Z0); assay: KAT-II inhibitory test; assay type: biochemical; conditions: 3.0 μmol/L kynurenine, 37° C. for 1 hr, kynurenic acid by HPLC
Experimental: The compounds described in the above-mentioned Examples were used for the KAT-II inhibitory test.
Human recombinant KAT-II was prepared as follows.
His tag and maltose binding protein tag were added to the N-terminal of a gene encoding human KAT-II (Genbank accession number: AF481738.1), and the obtained gene was incorporated into pET32 (Merck Nihon Millipore), which is an Escherichia coli expression vector. Human recombinant KAT-II produced by BL21(DE3) Escherichia coli (Merck Nihon Millipore, 69450) transformed using the plasmid was purified using an amylose resin column (New England Biolabs, #800-21 L).
The inhibitory action of the test compound on human recombinant KAT-II was determined by the following method.
To a reaction mixture (45 μL) containing 3.0 μmol/L kynurenine, 10 μmol/L pyridoxal phosphate, 2.0 ng/μL human recombinant KAT-II, and 150 mmol/L tris(hydroxymethyl)aminomethane-acetate buffer (pH 8.0) was added a 10% dimethyl sulfoxide solution (5 μL) of each test compound prepared, and the mixture was reacted at 37° C. for 1 hr. After the reaction, 50% trichloroacetic acid (5 μL) was added to terminate the reaction.
The resultant kynurenic acid was quantified as follows by high performance liquid chromatography. An enzyme reaction mixture was separated by an octadecylsilane reversed-phase column (SC-50DS, Eicom Corporation; mobile phase: 250 mmol/L zinc acetate, 50 mmol/L sodium acetate, and 5.0% acetonitrile (pH 6.2)) incubated at 30° C., and kynurenic acid was quantified using a fluorescence detector (RF-20Axs, Shimadzu Corporation) at excitation wavelength 354 nm, detection wavelength 460 nm. The analytical curve was drawn every time by an external standard method. Each test compound was tested by dual measurement at each concentration. The kynurenic acid level in the presence of a test compound at each concentration was converted into % relative to kynurenic acid resulting from a reaction with an enzyme alone as 100%, and the obtained values were fitted to S-curve to determine IC50.

human recombinant KAT-II, sequence (Q8N5Z0 30-425): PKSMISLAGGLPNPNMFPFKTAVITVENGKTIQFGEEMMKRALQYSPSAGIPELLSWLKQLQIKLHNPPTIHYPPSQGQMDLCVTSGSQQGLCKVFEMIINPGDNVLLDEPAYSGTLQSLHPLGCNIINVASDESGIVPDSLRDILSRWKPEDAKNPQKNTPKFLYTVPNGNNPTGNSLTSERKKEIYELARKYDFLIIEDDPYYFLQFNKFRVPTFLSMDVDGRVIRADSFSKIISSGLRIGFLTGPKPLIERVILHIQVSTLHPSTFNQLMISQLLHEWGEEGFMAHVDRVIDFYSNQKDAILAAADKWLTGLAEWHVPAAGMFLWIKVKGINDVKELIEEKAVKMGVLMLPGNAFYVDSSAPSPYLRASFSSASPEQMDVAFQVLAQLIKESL

| SMILES | IC50 |
| --- | --- |
| CC(C)(C#N)c1cnc2nc(N3CCC[C@@H]3C(=O)NCc3ccccc3)sc2c1 [Example 113, (R)—N-benzyl-1-[6-(2-cyanopropan-2-yl)[1,3]thiazolo[4,5-b]pyridin-2-yl]pyrrolidine-2-carboxamide] | 85 nM |
| N#CC1(c2cnc3nc(N4CCC[C@@H]4C(=O)NCc4ccccc4)sc3c2)CCC1 [Example 115] | 70 nM |
| N#Cc1cnc2nc(N3CCC[C@@H]3C(=O)NCc3ccccc3)sc2c1C1CC1 [Example 161] | 81 nM |
| Cc1cnc2nc(N3CCC[C@@H]3C(=O)NCc3ccccc3)sc2c1C#N [Example 136, (R)—N-benzyl-1-(7-cyano-6-methyl[1,3]thiazolo[4,5-b]pyridin-2-yl)pyrrolidine-2-carboxamide] | 490 nM |
| CCOc1c(COC)cnc2nc(N3CCC[C@@H]3C(=O)NCc3ccccc3)sc12 [Example 164] | 150 nM |
| Cc1cnc2nc([C@H]3CCCN3C(=O)Oc3ccccc3)sc2c1 [Example 197, phenyl (R)-2-(6-methyl[1,3]thiazolo[4,5-b]pyridin-2-yl) pyrrolidine-1-carboxylate] | 3000 nM |
| O=C(NCc1ccccc1)[C@H]1CCCN1c1nc2nc(C(F)F)nc(C3CCOCC3)c2s1 [Example 55] | 410 nM |
| N#Cc1cnc2nc(N3CCC[C@@H]3C(=O)NCc3ccccc3Cl)sc2c1 [Example 178] | 900 nM |
| CCCc1ncnc2nc(N3CCC[C@@H]3C(=O)NCc3ccccc3)sc12 [Example 26] | 120 nM |
| CN(C)c1nc(C2CC2)c2sc(N3CCC[C@@H]3C(=O)NCc3ccccc3)nc2n1 [Example 106, (R)—N-benzyl-1-[7-cyclopropyl-5-(N,N-dimethylamino)[1,3]thiazolo[4,5-d]pyrimidin-2-yl]pyrrolidine-2-carboxamide] | 920 nM |
| CCNc1nc(C(F)(F)F)nc2nc(N3CCC[C@@H]3C(=O)NCc3ccccc3)sc12 [Example 67] | 12 nM |
| CN(C)Cc1cnc2nc(N3CCC[C@@H]3C(=O)NCc3ccccc3)sc2c1C1CC1 [Example 176, (R)—N-benzyl-1-{7-cyclopropyl-6-[(dimethylamino)methyl][1,3]thiazolo[4,5-b]pyridin-2-yl}pyrrolidine-2-carboxamide hydrochloride] | 190 nM |
| CCOc1ncnc2nc(N3CCC[C@@H]3C(=O)NCc3ccccc3)sc12 [Example 19, (R)—N-benzyl-1-(7-ethoxy[1,3]thiazolo[4,5-d]pyrimidin-2-yl)pyrrolidine-2-carboxamide] | 37 nM |
| O=C(NCc1ccccc1)[C@H]1CCCN1c1nc2ncc(OC3COC3)cc2s1 [Example 151] | 270 nM |
| CC(C)(C)c1ncnc2nc(N3CCC[C@@H]3C(=O)NCc3ccccc3)sc12 [Example 30] | 270 nM |
| CCc1cnc2nc(N3CCC[C@@H]3C(=O)NCc3ccccc3)sc2n1 [Example 187] | 140 nM |
| Cc1cnc2nc([C@H]3CCCN3C(=O)Cc3ccccc3)sc2c1 [Example 196, 1-[(R)-2-(6-methyl[1,3]thiazolo[4,5-b]pyridin-2-yl)pyrrolidin-1-yl]-2-phenylethanone] | 2900 nM |
| O=C(NCc1ccccc1)[C@H]1CCCN1c1nc2ncc(C3(O)CCC3)cc2s1 [Example 126] | 190 nM |
| O=C(NCc1ccccc1)[C@H]1CCCN1c1nc2ncnc(Oc3ccccc3)c2s1 [Example 66] | 12 nM |
| CCc1cnc2nc(N3CCC[C@@H]3C(=O)NCc3ccc(F)cc3)sc2n1 [Example 188] | 300 nM |
| CCOc1nc(C)c2sc(N3CCC[C@@H]3C(=O)NCc3ccccc3)nc2n1 [Example 88] | 420 nM |
| CN(C)Cc1nc(C2CC2)c2sc(N3CCC[C@@H]3C(=O)NCc3ccccc3)nc2n1 [Example 58] | 640 nM |
| N#CC1(c2cnc3nc(N4CCC[C@@H]4C(=O)NCc4ccccc4)sc3c2)CCOCC1 [Example 116] | 90 nM |
| O=C(NCc1ccccc1)[C@H]1CCCN1c1nc2nc(-c3ccncc3)nc(C3CC3)c2s1 [Example 49] | 76 nM |
| O=C(NCc1ccccc1)[C@H]1CCCN1c1nc2ncc(C(F)(F)F)cc2s1 [Example 124] | 710 nM |
| O=C(NCc1ccc(F)cc1)[C@H]1CCCN1c1nc2ncc(C3CC3)cc2s1 [Example 162, (R)-1-(6-cyclopropyl[1,3]thiazolo[4,5-b]pyridin-2-yl)-N-(4-fluorobenzyl)pyrrolidine-2-carboxamide] | 300 nM |

| SMILES | IC50 |
| --- | --- |
| O=C(NCc1ccccc1)[C@H]1CCCN1c1nc2ncc(C3CCOCC3)cc2s1 [Example 129] | 72 nM |
| COCCc1ncnc2nc(N3CCC[C@@H]3C(=O)NCc3ccccc3)sc12 [Example 32] | 390 nM |
| CCc1c(-c2cnn(C)c2)cnc2nc(N3CCC[C@@H]3C(=O)NCc3ccccc3)sc12 [Example 170, (R)—N-benzyl-1-[7-ethyl-6-(1-methyl-1H-pyrazol-4-yl)[1,3]thiazolo[4,5-b]pyridin-2-yl]pyrrolidine-2-carboxamide] | 34 nM |
| O=C(NCc1ccccc1)[C@H]1CCCN1c1nc2nc(CN3CCOCC3)nc(C3CC3)c2s1 [Example 98] | 75 nM |
| O=C(NCc1ccccc1)[C@H]1CCCN1c1nc2nc(CC3CCOCC3)nc(C3CC3)c2s1 [Example 46] | 35 nM |
| CN(c1nc2ncnc(C3CC3)c2s1)C(C)(C)C(=O)NCc1ccccc1 [Example 92] | 2100 nM |
| O=C(NCc1ccccc1)[C@H]1CCCN1c1nc2ncnc(OC3CCC3)c2s1 [Example 89, (R)—N-benzyl-1-[7-(cyclobutyloxy)[1,3]thiazolo[4,5-d]pyrimidin-2-yl]pyrrolidine-2-carboxamide] | 46 nM |
| O=C(NCc1ccccc1)[C@H]1CCCN1c1nc2ncnc(OCC(F)(F)F)c2s1 [Example 70] | 160 nM |
| C[C@H](C(=O)NCc1ccccc1)N(Cc1ccccn1)c1nc2ncnc(C3CC3)c2s1 [Example 39] | 350 nM |
| CC1(c2ncnc3nc(N4CCC[C@@H]4C(=O)NCc4ccccc4)sc23)CC1 [Example 31, (R)—N-benzyl-1-[7-(1-methylcyclopropyl)[1,3]thiazolo[4,5-d]pyrimidin-2-yl]pyrrolidine-2-carboxamide] | 65 nM |
| COCc1ccnc2nc(N3CCC[C@@H]3C(=O)NCc3ccccc3)sc12 [Example 141] | 320 nM |
| CN(c1nc2ncnc(C3CC3)c2s1)[C@@H](C(=O)NCc1ccccc1)C1CC1 [Example 93] | 140 nM |
| CC(C)(C#N)c1ncnc2nc(N3CCC[C@@H]3C(=O)NCc3ccccc3)sc12 [Example 76, (R)—N-benzyl-1-[7-(2-cyanopropan-2-yl)[1,3]thiazolo[4,5-d]pyrimidin-2-yl]pyrrolidine-2-carboxamide] | 1500 nM |
| CC(C)c1ncnc2nc(N3CCC[C@@H]3C(=O)NCc3ccccc3)sc12 [Example 28] | 190 nM |
| Cc1nc(-c2c(C)cnc3nc(N4CCC[C@@H]4C(=O)NCc4ccccc4)sc23)no1 [Example 149] | 110 nM |
| Cc1nc(-c2cnc3nc(N4CCC[C@@H]4C(=O)N[C@H](C)c4ccccc4)sc3c2)no1 [Example 148, (R)-1-[6-(5-methyl-1,2,4-oxadiazol-3-yl)[1,3]thiazolo[4,5-b]pyridin-2-yl]-N-[(1R)-1-phenylethyl]pyrrolidine-2-carboxamide] | 93 nM |
| Cc1nc(OC2CCOCC2)nc2nc(N3CCC[C@@H]3C(=O)NCc3ccccc3)sc12 [Example 84] | 390 nM |
| O=C(NCc1ccccc1)[C@H]1CSCN1c1nc2ncnc(C3CC3)c2s1 [Example 100, (S)—N-benzyl-3-(7-cyclopropyl[1,3]thiazolo[4,5-d]pyrimidin-2-yl)-1,3-thiazolidine-4-carboxamide] | 240 nM |
| COCCN(c1nc2ncnc(C3CC3)c2s1)[C@H](C)C(=O)NCc1ccccc1 [Example 38] | 410 nM |
| O=C(NCc1ccccc1)[C@H]1CCCN1c1nc2nc(COC3CCOCC3)nc(C3CC3)c2s1 [Example 83] | 13 nM |
| C[C@H](C(=O)NCc1ccccc1)N(C)c1nc2ncnc(C3CC3)c2s1 [Example 36, (R)—N-benzyl-2-[N′-(7-cyclopropyl[1,3]thiazolo[4,5-d]pyrimidin-2-yl)-N′-methylamino]propionamide] | 64 nM |
| COCc1ncnc2nc(N3CCC[C@@H]3C(=O)NCc3ccccc3)sc12 [Example 33] | 600 nM |
| COCC1(c2cnc3nc(N4CCC[C@@H]4C(=O)NCc4ccccc4)sc3c2)CC1 [Example 117] | 170 nM |
| O=C(NCc1ccccc1)[C@H]1CCCN1c1nc2ncc(CN3CCCCC3)c(C3CC3)c2s1 [Example 175, (R)—N-benzyl-1-[7-cyclopropyl-6-(piperidin-1-ylmethyl)[1,3]thiazolo[4,5-b]pyridin-2-yl]pyrrolidine-2-carboxamide hydrochloride] | 360 nM |
| Cc1cnc2nc(N3CCC[C@@H]3C(=O)NCc3ccccc3)sc2c1 [Example 134] | 200 nM |
| COCc1c(F)cnc2nc(N3CCC[C@@H]3C(=O)NCc3ccccc3)sc12 [Example 163, (R)—N-benzyl-1-[6-fluoro-7-(methoxymethyl)[1,3]thiazolo[4,5-b]pyridin-2-yl]pyrrolidine-2-carboxamide] | 910 nM |

Source: patent publication US10793582B2, “Bicyclic heterocyclic compound” (MITSUBISHI TANABE PHARMA CORPORATION, priority 2015, dated 2020)
